Reference: PMC6099557, “Cholinesterase Inhibition Activity, Alkaloid Profiling and Molecular Docking of Chilean Rhodophiala (Amaryllidaceae)” (Molecules : A Journal of Synthetic Chemistry and Natural …, 2018)
pIC50: −log10 of the molar value. Values after ≈ are worked out from the molar mass of the structure shown. Like-named read-outs stand apart in the source and are kept apart here.

Legend:
BuChE from equine serum = target: T1, BuChE from equine serum (Equus caballus, UniProt P81908); experiment: biochemical; settings: for IC50: single alkaloids and reference galanthamine, read-out: BuChE inhibitory activity IC50 (converted); for pIC50: BuChE inhibitory activity IC50, single alkaloids and reference galanthamine
T1 construct: BuChE from equine serum (Merck, Darmstadt, Germany); purchased Merck, Darmstadt, Germany; host or cells: equine serum
Description: (§1) Cholinesterase inhibitory activities were determined according to [35] with some modifications. Stock solutions with 518U of AchE from Electrophorus electricus (Merck, Darmstadt, Germany) and BuChE from equine serum (Merck, Darmstadt, Germany), respectively, were prepared and kept at −20 °C. Acetylthiocholine iodide (ATCI), S-butyrylthiocholine iodide (BTCI) and 5,5′-dithiobis (2-nitrobenzoic acid) (DTNB) were obtained from Merck (Darmstadt, Germany). Fifty microliters of AChE or BuChE (both enzymes used at 6.24 U) in phosphate buffer (8 mM K2HPO4, 2.3 mM NaH2PO4, 0.15 NaCl, pH 7.5) and 50 μL of the sample dissolved in the same buffer were added to the wells. The plates were incubated for 30 min at room temperature. Then, 100 μL of the substrate solution (0.1 M Na2HPO4, […], and 0.6 mM ATCI or 0.24 mM BTCI in Millipore water, pH 7.5) was added. After 10 min, the absorbance was read at 405 nm in a Labsystem microplate reader (Thermo Fischer, Waltham, MA, USA). Enzyme activity was calculated as percent compared to a control using buffer without any inhibitor. […] In a first step, samples were assessed at 10, 100 and 200 μg/mL towards both enzymes. […] The cholinesterase inhibitory data were analyzed with the software Microsoft Office Excel 2010 (Microsoft, Redmond, WA, USA).

human erythrocye AChE = settings: human erythrocyte AChE, tested 0.5–500 μg/mL, cited from earlier work
human serum BuChE = settings: tested 0.5–500 μg/mL, cited from earlier work
[1] = target: T2, AchE from Electrophorus electricus (Electrophorus electricus, UniProt O42275); experiment: biochemical; settings: AChE inhibitory activity IC50, single alkaloids and reference galanthamine; electric eel AChE
T2 construct: purchased Merck, Darmstadt, Germany
Description: as §1

[2] = test system: panel of eight human cancer cell lines; settings: cited from earlier work
[3] = test system: multi-drug resistant breast cell line NCLADR; settings: montanine at 2.5 μg/mL; cited from earlier work
S. aureus ATCC 6538 = settings: cited from earlier work
E. coli ATCC 24922 = settings: cited from earlier work
P. aeruginosa ATCC 27853 = settings: cited from earlier work

T1 sequence (P81908 whole entry): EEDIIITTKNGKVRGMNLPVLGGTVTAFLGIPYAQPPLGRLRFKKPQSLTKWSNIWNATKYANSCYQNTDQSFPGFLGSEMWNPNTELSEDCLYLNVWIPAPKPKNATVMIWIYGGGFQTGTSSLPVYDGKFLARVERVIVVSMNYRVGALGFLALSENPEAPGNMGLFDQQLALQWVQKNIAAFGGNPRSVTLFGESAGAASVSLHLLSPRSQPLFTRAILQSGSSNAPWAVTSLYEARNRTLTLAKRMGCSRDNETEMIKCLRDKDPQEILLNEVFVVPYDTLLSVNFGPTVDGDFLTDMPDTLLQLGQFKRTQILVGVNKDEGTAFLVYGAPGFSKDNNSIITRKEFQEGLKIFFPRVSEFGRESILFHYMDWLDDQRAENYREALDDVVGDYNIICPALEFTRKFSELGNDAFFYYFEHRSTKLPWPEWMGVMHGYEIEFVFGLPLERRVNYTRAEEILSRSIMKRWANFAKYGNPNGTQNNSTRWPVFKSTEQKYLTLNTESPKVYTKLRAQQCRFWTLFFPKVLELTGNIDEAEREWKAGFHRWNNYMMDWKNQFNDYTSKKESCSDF
T2 sequence (O42275 24-633): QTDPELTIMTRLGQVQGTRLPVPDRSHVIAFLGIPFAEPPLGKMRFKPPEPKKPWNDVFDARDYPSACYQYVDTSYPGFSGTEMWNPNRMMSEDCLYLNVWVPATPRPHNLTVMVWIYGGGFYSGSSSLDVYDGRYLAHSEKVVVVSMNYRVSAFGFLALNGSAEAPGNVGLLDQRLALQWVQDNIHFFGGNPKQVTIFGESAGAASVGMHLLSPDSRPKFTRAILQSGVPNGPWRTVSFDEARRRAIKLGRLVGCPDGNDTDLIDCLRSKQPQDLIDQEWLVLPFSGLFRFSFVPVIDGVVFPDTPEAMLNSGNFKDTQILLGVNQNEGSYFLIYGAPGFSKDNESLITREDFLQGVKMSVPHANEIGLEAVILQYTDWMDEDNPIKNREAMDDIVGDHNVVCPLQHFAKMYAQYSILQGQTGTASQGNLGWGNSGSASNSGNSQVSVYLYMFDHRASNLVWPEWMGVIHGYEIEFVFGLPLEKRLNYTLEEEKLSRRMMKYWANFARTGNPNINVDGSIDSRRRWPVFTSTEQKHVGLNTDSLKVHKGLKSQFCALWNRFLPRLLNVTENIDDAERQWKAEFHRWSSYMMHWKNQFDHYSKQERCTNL

SMILES | Activity on human AChE (in words) (human erythrocye AChE) | Activity on human BuChE (in words) (human serum BuChE) | pIC50 (BuChE from equine serum) | further results
OC1C=CC23c4cc5c(cc4CN(CC2O)C3C1)OCO5 (centres unmarked) [hamayne (20b), hamayne] | presented activity | inactive | – | IC50 (BuChE from equine serum): 168 µM
OC1C=CC23c4cc5c(cc4CN(CC2O)C3C1)OCO5 (centres unmarked) [11-hydroxyvittatine (20a), 11-hydroxyvittatine] | – | – | – | IC50 (BuChE from equine serum): > 696 µM; Activity on human AChE (in words) (human erythrocye AChE; listed as 11-hydroxyvitattine): not active; Activity on human BuChE (in words) (human serum BuChE; listed as 11-hydroxyvitattine): not active
COc1cc2c(cc1O)C13CCC(O)CC1N(CC3)C2 (centres unmarked) [deacetylcantabricine (17), deacetylcantabricine] | – | – | < 3.14 | pIC50 [1]: < 3.14
O[C@H]1[C@H]2c3cc4c(cc3CN3CCC(=C[C@@H]1O)[C@H]23)OCO4 [lycorine (9), lycorine] | not active | not active | < 3.16 | –
CO[C@H]1C=C2[C@H]3C[N@@](Cc4cc5c(cc43)OCO5)[C@H]2C[C@@H]1O [montanine] | – | – | – | Activity towards a panel of eight human cancer cell lines [2]: showed activity; Activity on NCLADR compared with doxorubicine [3]: more active than doxorubicine; MIC (S. aureus ATCC 6538): 5 µg/mL (≈ 16.6 µM); MIC (E. coli ATCC 24922): 5 µg/mL (≈ 16.6 µM); MIC (P. aeruginosa ATCC 27853): 20 µg/mL (≈ 66.4 µM)
COc1cc2c(cc1O)CN1CC[C@@]23C=C[C@@H](O)C[C@H]13 [8-O-demethylmaritidine (16), 8-O-demethylmaritidine] | presented activity | inactive | 3.33 | pIC50 [1]: 3.38
COC1C=CC23c4cc5c(cc4CN(CC2O)C3C1)OCO5 (centres unmarked) [haemanthamine (18a), haemanthamine] | not active | not active | < 3.18 | –
